Source: the supplement of paper PMC11997997

Columns and labels:
[1] = system: murine bone marrow-derived macrophages; assay: area under cytotoxicity dose-response curve (AUC (% cytotoxicity x dose, relative)); higher = more cytotoxic; details: duration: 6 days; dose range: 0.13-80 uM, 8 points
Procedure, shortened: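 An 8-point, 2.5-fold dilution series (final 80–0.13 μM) was applied for 6 days at 37 °C in 5% CO2 to primary murine bone marrow-derived macrophages plated in opaque 384-well plates. Promega's CellTiter-Glo luminescence assay measured viability, and percent cytotoxicity was normalised against vehicle and positive control wells. The area under the dose–response curve, worked out in GraphPad Prism version 10, is the reported cytotoxicity measure.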

[2] = system: Mycobacterium tuberculosis CDC1551 (intracellular, in murine BMDM); assay: area under intracellular growth-inhibition dose-response curve (AUC (% inhibition x dose, relative)); higher = more potent; details: duration: 6 days; dose range: 0.13-80 uM, 8 points
Procedure, shortened: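 Each value is an area under the growth-inhibition dose–response curve, calculated with GraphPad Prism. Infected primary murine bone marrow-derived macrophages, carrying luciferase-expressing M. tuberculosis CDC1551 at multiplicity of infection 1, were treated for 6 days with an 8-dose, 2.5-fold series (final 80–0.13 μM) in 384-well opaque plates. Readout was by Bright-Glo luciferin assay, normalised to a reference drug control and the lowest-concentration wells.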

CCn1cc(C(=O)NCCc2ccccc2)c(=O)c2cc(S(=O)(=O)N3CCCC3)ccc21
area under cytotoxicity dose-response curve [1]: 74.8
area under intracellular growth-inhibition dose-response curve [2]: 203

NC1CCN(c2c(F)cc3c(=O)c(C(=O)O)cn(C4CC4)c3c2Cl)C1 (stereo not drawn)
area under cytotoxicity dose-response curve [1]: < 0
area under intracellular growth-inhibition dose-response curve [2]: 210

c1csc(Cc2nn3c(-c4[nH]nc5c4CCC5)nnc3s2)c1
area under cytotoxicity dose-response curve [1]: 44.4
area under intracellular growth-inhibition dose-response curve [2]: 251

Nc1ccc(C(=O)O)c(O)c1
area under cytotoxicity dose-response curve [1]: 62.3
area under intracellular growth-inhibition dose-response curve [2]: 182

COc1ccc(NC(=O)Cn2c(C)cc(=O)c3ccccc32)cc1
area under cytotoxicity dose-response curve [1]: < 0
area under intracellular growth-inhibition dose-response curve [2]: 182

Cc1ccc(C(=O)NC2CCCCC2)cc1
area under cytotoxicity dose-response curve [1]: 43.3
area under intracellular growth-inhibition dose-response curve [2]: 228

COCCNc1c(-c2ccc(OC)cc2)nc2ccc(Cl)cn12
area under cytotoxicity dose-response curve [1]: 32.9
area under intracellular growth-inhibition dose-response curve [2]: 87.8

CCN1/C(=C/c2ccc3cc(C)ccc3[n+]2C)Sc2ccc3sccc3c21.[I-]
area under cytotoxicity dose-response curve [1]: 180
area under intracellular growth-inhibition dose-response curve [2]: 149

Cc1ccnc2c1ccc1c(C)ccnc12.O
area under cytotoxicity dose-response curve [1]: 38.9
area under intracellular growth-inhibition dose-response curve [2]: 199

C=CCNc1nc(C(=O)OCC(=O)NCc2cccc(Cl)c2)cs1
area under cytotoxicity dose-response curve [1]: 96
area under intracellular growth-inhibition dose-response curve [2]: < 0

CCCCCC(=O)NC(=S)Nc1ccc(NC(=O)c2ccco2)cc1
area under cytotoxicity dose-response curve [1]: 0.441
area under intracellular growth-inhibition dose-response curve [2]: 274

O=C(Nc1cccc(Cl)c1)NC1CC2CCC1C2 (stereo not drawn)
area under cytotoxicity dose-response curve [1]: 31.1
area under intracellular growth-inhibition dose-response curve [2]: 232

O=C1NC(=S)S/C1=C\C=C\c1ccc([N+](=O)[O-])o1
area under cytotoxicity dose-response curve [1]: 71.5
area under intracellular growth-inhibition dose-response curve [2]: 2.55

Cc1c(Cl)cccc1NC(=S)NCC(O)c1ccccc1 (stereo not drawn)
area under cytotoxicity dose-response curve [1]: 81.9
area under intracellular growth-inhibition dose-response curve [2]: 158

O=C(NCc1ccccc1F)c1ccc2c(c1)OCO2
area under cytotoxicity dose-response curve [1]: 87.2
area under intracellular growth-inhibition dose-response curve [2]: 79.5

Cc1c(C(=O)N(C)C)sc(NC(=O)c2cccc([N+](=O)[O-])c2)c1C#N
area under cytotoxicity dose-response curve [1]: 51.5
area under intracellular growth-inhibition dose-response curve [2]: 13.8

COc1cccc(NC(=O)NC2CCCCCCC2)c1
area under cytotoxicity dose-response curve [1]: 103
area under intracellular growth-inhibition dose-response curve [2]: 162

CCN(CC)c1ccc(NC(=S)Nc2ccc(F)cc2)cc1
area under cytotoxicity dose-response curve [1]: 90.6
area under intracellular growth-inhibition dose-response curve [2]: 106

O=C(c1ccc([N+](=O)[O-])o1)N1CCN(c2nc3c(F)cc(F)cc3s2)CC1
area under cytotoxicity dose-response curve [1]: 161
area under intracellular growth-inhibition dose-response curve [2]: 20.8

CC(C)Cn1c([N+](=O)[O-])nc2c1c(=O)[nH]c(=O)n2C
area under cytotoxicity dose-response curve [1]: 40.1
area under intracellular growth-inhibition dose-response curve [2]: 5.16

CNC(=S)N/C=N/OCc1c(Cl)cccc1Cl
area under cytotoxicity dose-response curve [1]: 86.9
area under intracellular growth-inhibition dose-response curve [2]: 83.8

COc1ccc(CNc2ncc(-c3ccc(Br)cc3)n2C)cc1OC.O=C(O)C(=O)O
area under cytotoxicity dose-response curve [1]: 42.6
area under intracellular growth-inhibition dose-response curve [2]: 113

Cc1nnc(SCC2=C(C(=O)O)N3C(=O)C(NC(=O)C(C)n4nc(C(F)(F)F)cc4C)C3SC2)s1 (stereo not drawn)
area under cytotoxicity dose-response curve [1]: 2.61
area under intracellular growth-inhibition dose-response curve [2]: 176

COc1ccc(CCNc2cc(-c3ccccc3)nc3ncnn23)cc1
area under cytotoxicity dose-response curve [1]: < 0
area under intracellular growth-inhibition dose-response curve [2]: 218

O=C(NCc1ccccc1)C1COc2ccccc2O1 (stereo not drawn)
area under cytotoxicity dose-response curve [1]: 14.8
area under intracellular growth-inhibition dose-response curve [2]: 193

Cc1ccc(C(=O)OCC(=O)Nc2ccccc2)cc1S(=O)(=O)N1CCCCC1
area under cytotoxicity dose-response curve [1]: < 0
area under intracellular growth-inhibition dose-response curve [2]: 94.3

O=C(NC1C2CC3CC(C2)CC1C3)c1ccc2c(c1)OCO2 (stereo not drawn)
area under cytotoxicity dose-response curve [1]: 123
area under intracellular growth-inhibition dose-response curve [2]: 226

Cc1cc(C)c2cc(C(=O)Nc3ccc(C)c(F)c3)[nH]c2c1
area under cytotoxicity dose-response curve [1]: < 0
area under intracellular growth-inhibition dose-response curve [2]: 214

O=c1c2ccccc2oc2nc3n(c(=O)c12)CCCS3
area under cytotoxicity dose-response curve [1]: 47.5
area under intracellular growth-inhibition dose-response curve [2]: 223

CC(=O)Nc1ccc(-c2c(C)cc3oc(=O)cc(-c4ccccc4)c3c2C)cc1
area under cytotoxicity dose-response curve [1]: 113
area under intracellular growth-inhibition dose-response curve [2]: 221

Nc1ccc(C(=O)[O-])c(O)c1.[Na+]
area under cytotoxicity dose-response curve [1]: 27.5
area under intracellular growth-inhibition dose-response curve [2]: 182

CC1CCc2nc3sc4c(c3c(N)c2C1)CCCC4 (stereo not drawn)
area under cytotoxicity dose-response curve [1]: 58.3
area under intracellular growth-inhibition dose-response curve [2]: 174

S=C(NCc1ccc(Cl)cc1)NC12CC3CC(CC(C3)C1)C2
area under cytotoxicity dose-response curve [1]: < 0
area under intracellular growth-inhibition dose-response curve [2]: 157

CCOc1ccc(C(=O)Nc2ccc(NC(=S)NC(=O)CC)cc2)cc1Cl
area under cytotoxicity dose-response curve [1]: < 0
area under intracellular growth-inhibition dose-response curve [2]: 179

C/C(=N\Nc1nc(C)c(C)s1)c1ccc([N+](=O)[O-])cc1
area under cytotoxicity dose-response curve [1]: < 0
area under intracellular growth-inhibition dose-response curve [2]: 222

C/C(CC(=O)Nc1ccc(N(C)C)cc1)=N\NC(=O)c1ccncc1
area under cytotoxicity dose-response curve [1]: 20.2
area under intracellular growth-inhibition dose-response curve [2]: 219

CC1CCCN(C(=O)C2CCC(CNc3c(N4CCCCC4)c(=O)c3=O)CC2)C1 (stereo not drawn)
area under cytotoxicity dose-response curve [1]: 8.75
area under intracellular growth-inhibition dose-response curve [2]: 91.7

Cc1ccc(C)c(NC(=O)CN2C(=O)NC(C)(c3ccc4c(c3)OCCO4)C2=O)c1 (stereo not drawn)
area under cytotoxicity dose-response curve [1]: 4.48
area under intracellular growth-inhibition dose-response curve [2]: 44.8

CC1(C)CC(=O)C=C(Nc2ccc(C(=O)O)c(O)c2)C1
area under cytotoxicity dose-response curve [1]: < 0
area under intracellular growth-inhibition dose-response curve [2]: 195

C/C(=C\c1ccccc1)C(=O)NCc1ccco1
area under cytotoxicity dose-response curve [1]: 134
area under intracellular growth-inhibition dose-response curve [2]: 111

CC(=O)NC(=S)Nc1ccc(NC(=O)COc2ccc(Cl)cc2Cl)cc1
area under cytotoxicity dose-response curve [1]: 38.6
area under intracellular growth-inhibition dose-response curve [2]: 220

CC1CCCC(C)N1C(=O)COC(=O)c1cccnc1Cl (stereo not drawn)
area under cytotoxicity dose-response curve [1]: 9.13
area under intracellular growth-inhibition dose-response curve [2]: 33.7

COc1c(/C=N/NC(N)=S)c(C)nn1-c1ccccc1
area under cytotoxicity dose-response curve [1]: 32.6
area under intracellular growth-inhibition dose-response curve [2]: 194

O=C(CNC(=O)c1ccc([N+](=O)[O-])cc1)N/N=C\c1ccc(OC(=O)c2ccccc2)cc1
area under cytotoxicity dose-response curve [1]: < 0
area under intracellular growth-inhibition dose-response curve [2]: 109

CC(=O)N1CCN(c2cc3c(cc2F)c(=O)c(C(=O)O)cn3C2CC2)CC1
area under cytotoxicity dose-response curve [1]: 6.41
area under intracellular growth-inhibition dose-response curve [2]: 228

CC(NC(=S)Nc1ccc(OC(F)F)c(Cl)c1)C(C)(C)C (stereo not drawn)
area under cytotoxicity dose-response curve [1]: 12.4
area under intracellular growth-inhibition dose-response curve [2]: 198

CCOC(=O)c1c(C)nc2ccc(C)cn12
area under cytotoxicity dose-response curve [1]: 24.3
area under intracellular growth-inhibition dose-response curve [2]: 155

O=C(c1ccc(Cl)c(Cl)c1)N1CCCC1
area under cytotoxicity dose-response curve [1]: 52.5
area under intracellular growth-inhibition dose-response curve [2]: 86.7

COc1ccccc1N1C(C)=CC(=Cc2sc3ccccc3[n+]2C)C=C1C.[I-]
area under cytotoxicity dose-response curve [1]: 25.9
area under intracellular growth-inhibition dose-response curve [2]: 119
